# Where “and” joins values, the source holds several entries; their conditions need not be identical. Equal entries are not always repeated. Where two headings read alike, the source gives them in different places.
# Columns and labels:
# [1] = tested on: HBV Cp Wild type; assay: microbe, parasite or virus in culture; assay type: cell-based, Hepatitis B virus
# [2] = tested on: HBV cell culture models; settings: concentrations of up to 10 μM
# [3] = molecular target: CYP1A2 (Homo sapiens, UniProt P05177); assay: biochemical
# CYP1A2, sequence (P05177 whole entry): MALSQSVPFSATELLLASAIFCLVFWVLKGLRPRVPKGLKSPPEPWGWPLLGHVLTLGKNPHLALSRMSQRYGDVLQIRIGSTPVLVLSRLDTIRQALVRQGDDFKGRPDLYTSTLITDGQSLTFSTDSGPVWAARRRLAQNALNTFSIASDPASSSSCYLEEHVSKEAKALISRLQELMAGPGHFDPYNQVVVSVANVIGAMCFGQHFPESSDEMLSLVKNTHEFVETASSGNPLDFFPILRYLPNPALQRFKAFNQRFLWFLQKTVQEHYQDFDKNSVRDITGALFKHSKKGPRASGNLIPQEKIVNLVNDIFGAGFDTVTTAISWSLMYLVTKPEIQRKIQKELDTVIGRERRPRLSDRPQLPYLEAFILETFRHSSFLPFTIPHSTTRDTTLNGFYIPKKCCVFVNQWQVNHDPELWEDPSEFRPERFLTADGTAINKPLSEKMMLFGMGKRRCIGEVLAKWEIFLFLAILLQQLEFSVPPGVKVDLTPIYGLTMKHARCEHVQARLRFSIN
# [4] = tested on: HBV; assay: HBV infection of primary human hepatocytes (PHHs); assay type: cell-based; settings: Hepatitis B virus, Hepatocyte, PHH
# [5] = tested on: herpes simplex virus 1, human rhinovirus 16, influenza A virus; assay: Cell protection assays with 3 unrelated viruses; settings: concentrations of up to 10 μM
# [6] = in vitro; settings: human
# [7] = tested on: NrtI^R HBV (rtL180M/M204V); assay: microbe, parasite or virus in culture; assay type: cell-based, Hepatitis B virus
# [8] = tested on: HBV Cp T109M; assay: microbe, parasite or virus in culture; assay type: cell-based, Hepatitis B virus
# [9] = tested on: HBV Cp D29G; assay: microbe, parasite or virus in culture; assay type: cell-based, Hepatitis B virus
# [10] = tested on: HBV genotype D; assay: microbe, parasite or virus in culture; assay type: cell-based; settings: Hepatitis B virus, read-out: Mean antiviral EC50
# [11] = tested on: HBV Cp T109I; assay: microbe, parasite or virus in culture; assay type: cell-based, Hepatitis B virus
# [12] = human, rat, cynomolgus monkey
# Experimental: (§1) In vitro intrinsic clearance (CLint) was determined as follows. […] The calculated CLint was determined from the relationship CLint = k × (volume of incubation in ml/mg microsomal protein) × (mg protein in liver/g liver weight) × (g liver weight/kg body weight). The values for liver weights, body weights, as well as hepatic blood flows (QH) across species were obtained from data reported previously by Davies and Morris ([28]). Values for liver microsome protein/liver weight for mouse, rat, dog, and monkey were […] ([27]), and that for human was 33 mg/g. The calculation used for the prediction of hepatic clearance (CLpred) is CLpred = (QH × CLint)/(QH + CLint).
# [13] = tested on: HBV cccDNA; assay: cccDNA formation assay in infected PHH cells (Southern blot); assay type: cell-based; settings: Hepatitis B virus, 96 h, 4 days, read-out: cccDNA % of Control
# [14] = tested on: HBV; assay: microbe, parasite or virus in culture; settings: Hepatitis B virus
# [15] = tested on: HBV Cp T33N; assay: microbe, parasite or virus in culture; assay type: cell-based, Hepatitis B virus
# [16] = molecular target: T1, CYP2B6 (Homo sapiens, UniProt P20813); assay: CYP inhibition in human liver microsomes, 2B6; assay type: in vitro ADME; settings: 0.1–100 μM
# T1 construct: in human liver microsomes; from tissue; host or cells: human liver microsomes
# T1 sequence (P20813 whole entry): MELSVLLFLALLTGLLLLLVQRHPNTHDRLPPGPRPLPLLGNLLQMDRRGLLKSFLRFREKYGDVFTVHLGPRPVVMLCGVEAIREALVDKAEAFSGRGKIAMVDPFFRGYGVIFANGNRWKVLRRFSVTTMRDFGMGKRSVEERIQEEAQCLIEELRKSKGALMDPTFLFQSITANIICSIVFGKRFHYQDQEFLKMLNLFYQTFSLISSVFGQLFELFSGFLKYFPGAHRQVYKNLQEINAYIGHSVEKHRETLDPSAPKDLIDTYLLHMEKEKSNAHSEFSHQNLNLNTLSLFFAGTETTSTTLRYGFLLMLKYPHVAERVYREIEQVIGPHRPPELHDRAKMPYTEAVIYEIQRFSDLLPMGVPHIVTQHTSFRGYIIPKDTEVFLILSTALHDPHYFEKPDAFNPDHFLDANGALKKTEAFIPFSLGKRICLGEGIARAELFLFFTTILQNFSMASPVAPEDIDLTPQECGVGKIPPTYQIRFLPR
# [17] = in vitro; settings: for half-life at 1 μM: hepatocytes; for half-life at 0.5 μM: microsomes
# Experimental: as §1
# [18] = molecular target: CYP3A (Homo sapiens, UniProt P08684); assay: CYP inhibition in human liver microsomes, 3A
# CYP3A, sequence (P08684 2-503): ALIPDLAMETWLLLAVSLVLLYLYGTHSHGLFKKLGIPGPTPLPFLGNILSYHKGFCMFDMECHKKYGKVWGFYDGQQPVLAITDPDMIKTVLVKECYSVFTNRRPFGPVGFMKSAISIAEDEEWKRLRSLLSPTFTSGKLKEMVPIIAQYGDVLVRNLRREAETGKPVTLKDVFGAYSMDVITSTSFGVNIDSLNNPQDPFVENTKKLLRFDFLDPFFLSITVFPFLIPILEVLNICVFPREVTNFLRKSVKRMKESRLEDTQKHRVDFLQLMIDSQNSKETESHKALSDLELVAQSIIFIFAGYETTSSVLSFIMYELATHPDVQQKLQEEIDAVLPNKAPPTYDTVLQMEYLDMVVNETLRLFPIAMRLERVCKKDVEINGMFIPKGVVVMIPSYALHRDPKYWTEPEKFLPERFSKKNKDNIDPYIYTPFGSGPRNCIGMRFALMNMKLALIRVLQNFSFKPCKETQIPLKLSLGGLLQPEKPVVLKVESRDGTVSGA
# [19] = tested on: HBV (genotype D, subtype ayw); assay: HBV replication assay in HepAD38 cells; assay type: cell-based, Hepatitis B virus; settings: Hepatitis B virus
# [20] = in vitro; settings: rat, hepatocytes
# [21] = molecular target: T2, CYP2C19 (Homo sapiens, UniProt P33261); assay: CYP inhibition in human liver microsomes, 2C19; assay type: in vitro ADME; settings: 0.1–100 μM
# T2 construct: in human liver microsomes; from tissue; host or cells: human liver microsomes
# T2 sequence (P33261 whole entry): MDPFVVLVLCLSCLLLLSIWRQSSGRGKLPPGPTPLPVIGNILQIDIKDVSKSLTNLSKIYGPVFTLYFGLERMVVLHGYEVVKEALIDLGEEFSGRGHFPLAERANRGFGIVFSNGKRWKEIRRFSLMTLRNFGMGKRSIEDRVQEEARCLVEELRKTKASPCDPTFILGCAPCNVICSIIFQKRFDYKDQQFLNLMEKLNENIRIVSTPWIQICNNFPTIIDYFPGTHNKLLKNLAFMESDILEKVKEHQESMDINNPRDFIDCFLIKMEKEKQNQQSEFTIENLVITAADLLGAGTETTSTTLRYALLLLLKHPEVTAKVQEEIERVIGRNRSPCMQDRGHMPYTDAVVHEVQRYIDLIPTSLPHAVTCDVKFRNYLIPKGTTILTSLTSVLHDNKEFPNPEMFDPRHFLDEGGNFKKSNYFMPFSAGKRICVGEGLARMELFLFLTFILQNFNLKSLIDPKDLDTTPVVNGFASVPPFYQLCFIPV
# [22] = tested on: Huh7, HepG2, HeLa H1A, HEK293, NCI-H226, MOLT-4, PBMC
# [23] = tested on: HBV; set-up: method as in PMID 31711752; settings: HBeAg-negative patient, day 28 of monotherapy; cited from earlier work
# [24] = tested on: HBV Cp I105L; assay: microbe, parasite or virus in culture; assay type: cell-based, Hepatitis B virus
# [25] = tested on: HBV genotype C; assay: microbe, parasite or virus in culture; assay type: cell-based; settings: Hepatitis B virus, read-out: Mean antiviral EC50
# [26] = tested on: HBV Cp Y118F; assay: microbe, parasite or virus in culture; assay type: cell-based, Hepatitis B virus
# [27] = tested on: HBV genotype A; assay: microbe, parasite or virus in culture; assay type: cell-based; settings: Hepatitis B virus, read-out: Mean antiviral EC50
# [28] = tested on: HBV Cp I105T; assay: microbe, parasite or virus in culture; assay type: cell-based, Hepatitis B virus
# [29] = Hepatitis B virus, Huh-7, read-out: Mean EC50
compound,measurement,setting,value
O=C(NCc1cnc(C(F)(F)F)s1)c1ccc2c(c1)NC(=O)c1ccccc1S2(=O)=O [ABI-H0731],EC50,[1]; [29],146 ± 21 nM
same,Fold shift,[1]; Wild type,1 fold
same,cytotoxicity,[2],No cytotoxicity was observed
same,IC50,[3],> 100000 nM
same,EC50,"[4]; read-out: Mean EC50, HBeAg",2210 nM
same,EC50,"[4]; read-out: Mean EC50, HBsAg",3000 nM
same,EC50,"[4]; read-out: Mean EC50, pgRNA",1840 nM
same,EC50,"[4]; total intracellular viral DNA, read-out: Mean EC50, viral DNA",154 ± 18 nM
same,inhibitory activity against unrelated viruses,[5],no significant inhibitory activity
same,"recovery at 4 days, 10 μM",[6],67 to 84%
same,Fold shift,[7]; HepG2-NrtI^R versus HepAD38 (wild type),1.2 fold
same,EC50,"[7]; Hepatitis B virus, 96 h, read-out: Mean EC50",262 ± 97 nM
same,EC50,[8]; [29],> 10000 nM
same,Fold shift,[8]; T109M vs wild type,>68 fold
same,Fold shift,[9]; D29G vs wild type,20 fold
same,EC50,[9]; [29],2960 nM
same,EC50,[10],142 ± 48 nM
same,EC50,[11]; [29],> 10000 nM
same,Fold shift,[11]; T109I vs wild type,>68 fold
same,CLpred as % of liver blood flow,"[12]; mouse, 0.5 μM",12-21%
same,CLpred,[12]; 1 μM,2.3 to 21 mL/min/kg
same,CLpred as % of liver blood flow,[12]; 1 μM,11-32%
same,activity at […],[13]; 0.37 μM,90%
same,activity at 1.11 µM,[13]; 1.11 μM,80%
same,activity at 3.33 µM,[13]; 3.33 μM,56%
same,activity at 10 µM,[13]; 10.0 μM,15%
same,EC50,"[14]; HePAD38, HepAD38, 2% HPL",200 ± 5 nM
same,EC50,"[14]; HePAD38, HepAD38, 20% HPL",522 ± 40 nM
same,EC50,[15]; [29],3060 nM
same,Fold shift,[15]; T33N vs wild type,21 fold
same,IC50,[16],27700 nM
same,% LBF,"[17]; cynomolgus monkey, 0.5 μM",15%
same,CLpred,"[17]; cynomolgus monkey, 0.5 μM",4.7 mL/min/kg
same,% LBF,"[17]; cynomolgus monkey, 1 μM",15%
same,CLpred,"[17]; cynomolgus monkey, 1 μM",4.7 mL/min/kg
same,% LBF,"[17]; dog, 0.5 μM",65%
same,CLpred,"[17]; dog, 0.5 μM",20 mL/min/kg
same,% LBF,"[17]; dog, 1 μM",81%
same,CLpred,"[17]; dog, 1 μM",25 mL/min/kg
same,half-life at 1 μM,[17]; dog,0.667 h
same,half-life at 0.5 μM,[17]; dog,0.622 h
same,% LBF,"[17]; human, 0.5 μM",13%
same,CLpred,"[17]; human, 0.5 μM",2.8 mL/min/kg
same,% LBF,"[17]; human, 1 μM",11%
same,CLpred,"[17]; human, 1 μM",2.3 mL/min/kg
same,half-life at 1 μM,[17]; human,11.6 h
same,half-life at 0.5 μM,[17]; human,6.27 h
same,half-life at 1 μM,[17]; monkey,7.92 h
same,half-life at 0.5 μM,[17]; monkey,5.98 h
same,% LBF,"[17]; mouse, 0.5 μM",21%
same,CLpred,"[17]; mouse, 0.5 μM",19 mL/min/kg
same,half-life at 0.5 μM,[17]; mouse,2.33 h
same,% LBF,"[17]; rat, 0.5 μM",12%
same,CLpred,"[17]; rat, 0.5 μM",7.9 mL/min/kg
same,half-life at 0.5 μM,[17]; rat,4.62 h
same,IC50,[18]; probe midazolam,82300 nM
same,IC50,[18]; probe test (so in the source),46200 nM
same,EC50,"[19]; HePAD38, HepAD38, concomitantly determined with HepG2-NrtI^R, read-out: Mean EC50",221 ± 19 nM
same,EC50,"[19]; HePAD38, HepAD38, total intracellular viral DNA, read-out: Mean EC50, viral DNA",173 ± 40 nM
same,half-life at 1 μM,[20],1.75 h
same,IC50,[21],42800 nM
same,CC50 relative to VR EC50,[22],> 50 fold
same,decline in viral load in a patient harboring T109M at baseline,[23],1.0 log and 1 log
same,EC50,[24]; [29],41 ± 6 nM
same,Fold shift,[24]; I105L vs wild type,0.3 fold
same,EC50,[25],88.2 ± 27 nM
same,EC50,[26]; [29],2070 nM
same,Fold shift,[26]; Y118F vs wild type,14 fold
same,EC50,[27],113 ± 22 nM
same,EC50,[28]; [29],324 ± 20 nM
same,Fold shift,[28]; I105T vs wild type,2.2 fold

# Reference: publication PMC7577125 (Antimicrobial Agents and Chemotherapy, 2020)
